Experimental data: EPA's ToxValDB 9.5 (doi:10.2903/j.efsa.2010.1704)
≈ marks a conversion by molar mass, not a printed value.

Key:
Canidae = settings: oral, Dog Other, organ weight
Pimephales promelas = settings: chronic/long-term; duration: 35 days; growth
Oncorhynchus mykiss = settings: acute; duration: 96 hours; mortality
Colinus virginianus = settings: acute, oral, mortality
Oryctolagus sp. = settings: reproduction developmental; body weight
Daphnia magna = settings: chronic/long-term; duration: 21 days; reproduction
Anas platyrhynchos = settings: oral, mortality
Typhlodromus pyri = settings: acute; duration: 7 days; mortality
Apis mellifera = settings: acute; duration: 48 hours; oral; unspecified; mortality
Coturnix japonica = settings: reproduction developmental

## Clc1ccc(C2(Cn3cncn3)CC(Br)CO2)c(Cl)c1 (stereo not given) [Bromuconazole]
Canidae; chronic, duration: 1 years
  NOAEL: 2.5 mg/kg-day
Canidae; subchronic, duration: 90 days
  NOAEL: 2.5 mg/kg-day
Rattus norvegicus; acute, oral, F, mortality
  LD50: 328 mg/kg-day
Rattus norvegicus; chronic, duration: 2 years, oral, diet, histopathology: nonneoplastic
  NOAEL: 0.88 mg/kg-day
Rattus norvegicus; chronic, histopathology: nonneoplastic
  NOEL: 13.8 mg/kg-day
Rattus norvegicus; developmental, development
  NOAEL: 10 mg/kg-day
Rattus norvegicus; reproduction developmental, body weight
  NOEL: 1.3 mg/kg-day
Pimephales promelas
  NOEC: 0.065 mg/L
Oncorhynchus mykiss
  LC50: 1.7 mg/L (≈ 4.51 µM)
Colinus virginianus; diet
  LC50: > 778 mg/kg-day
Colinus virginianus
  LD50: > 2150 mg/kg-day
Oryctolagus sp.
  NOEL: 12.5 mg/kg-day
Daphnia magna
  NOEC: 0.02 mg/L
Anas platyrhynchos; acute, unspecified
  LD50: > 2150 mg/kg-day
Anas platyrhynchos; short-term, feed
  LC50: > 684 mg/kg-day
Tagia sp.; acute, duration: 14 days, mortality
  LC50: > 1000 mg/kg
Tagia sp.; chronic/long-term, duration: 56 days
  NOEC: 37.2 mg/kg
Typhlodromus pyri
  LEL: 260 g/ha
Apis mellifera
  LD50: > 100 µg/piece
Coturnix japonica
  NOEC: 26.5 mg/kg-day
